Here are results for 34 compounds from a melting point compilation (Tetko et al.; mined from patent text by program, amines drawn as free bases though some values may be those of a salt).

Usually melting point stands for the temperature, or range, at which the solid turns liquid. `COC(=O)c1cc(-n2cnc(Br)c2)c(C(F)(F)F)cc1[N+](=O)[O-]` had a melting point of 90 °C.
Then `CC(=O)C(=O)Nc1ccc(Cl)cc1`, with 151 °C; and `OCc1ccc(-c2ccccc2-c2nnn[nH]2)cc1`, with 132 to 135 °C.
The value for `CC(=O)Oc1ccc2c(c1)CCC1C2CCC2(C)C(OC(=O)c3ccccc3)CCC12` (centres undefined) was 148 to 150 °C.
`CCOC(=O)C1(CBr)C=CC=CC1S(=O)(=O)NC(C)(C)C` (centres undefined): the melting point is 74 to 75 °C.
The value for `CC(=O)C(=O)Nc1ccc(C#N)c(C(F)(F)F)c1` was 147 to 148 °C; that for `COCCCNC(=O)c1ccc(-c2cc(-c3c(-c4cccc(C)n4)nc4ccccn34)ccn2)cc1` was 165 °C; that for `COc1cc(-c2cnc3[nH]cc(C(=O)O)c3n2)cc(OC)c1OC` was 238 °C.
Compound `CC(C)(C)OC(=O)Nc1ccc(-c2cccc(F)c2)cc1N` displayed a melting point of 125 to 128 °C.
Then `C=C(CCC)C(=O)c1cc2oc(C(=O)O)cc2c(C)c1C`, with 172 °C; and `CCCCCCCCCCCCCCCCCCOc1cccc(N)c1`, with 77 to 78 °C; and `O=C(C=Cc1ccc[nH]1)c1ccccc1Br`, with 76 to 78 °C.
The value for `O=C1NCN(c2ccccc2)C12CCN(C1CCC(c3ccc(F)cc3)(c3ccc(F)cc3)CC1)CC2` was 249 to 253 °C; that for `C[C@H]1CC[C@H](Nc2nccc(-n3ncc4c([N+](=O)[O-])cccc43)n2)CC1` was 254 to 255 °C; that for `O=C(O)CCc1cn(Cc2cccc(C(=O)NCc3ccc(C(F)(F)F)cc3)c2)nc1-c1ccccc1` was 165 to 166 °C.
Then `CCN1CCc2ccc(Nc3ncc(Br)c(Nc4ccccc4C(=O)NC)n3)cc2CC1`, with 203 to 204 °C; and `COC1(c2cnc(OCc3ccc(/C(C)=N/O)cc3)s2)CCOCC1`, with 107 to 109 °C; and `O=C(C1CCCCC1)N1CC2CC2(c2ccccc2)C1` (centres undefined), with 81 to 82 °C.
The compound `Fc1cc(/C=C/c2nc(COc3ccc(CCCCn4ccnn4)cc3)co2)ccc1Cl` displayed a melting point of 146 to 149 °C.
Then `CCOC(=O)c1[nH]c2cc(Cl)cc(Cl)c2c1N(CC(=O)c1ccccc1)Cc1ccccc1`, with 174 to 175 °C; and `CCN(CC)C(=O)C=C1C=C(C(C)(C)C)C(=O)C(C(C)(C)C)=C1`, with 109 to 110 °C; and `CCCCCCCCCCCCCCOc1cccc(CC(=O)Nc2cccc(CBr)c2)c1`, with 104 to 106 °C.
Then `CSc1cccc(NC(=O)NCC(=O)N2[C@@H](C(=O)OC(C)(C)C)C[C@H](C(=O)O)[C@H]2c2ccccc2)c1` (racemic), with 130 °C; and `O=C1Nc2ccccc2N2CCN(CCCc3ccncc3)CC12` (centres undefined), with 188 to 190 °C; and `COc1ccc(-c2cnc3ccc(-c4nnc(SCc5cccc(C#N)c5)o4)cn23)cc1`, with 143 to 144 °C.
Then `Nc1ccccc1OCCCN1CCC(OC(c2ccccc2)c2ccccc2)CC1`, with 86 to 88 °C.
`CC(C)NC(=O)NNC=NC(=O)c1nc(F)c(N)nc1N` had a melting point of 221 °C.
Then `OCC1(CN(Cc2ccccc2)Cc2ccccc2)CCN(Cc2ccccc2)C1` (centres undefined), with 65 to 67 °C; and `Cc1sc(NC(=O)CCc2cnoc2-c2ccccc2)nc1-c1ccccc1`, with 150 to 151 °C.
The value for `CCOc1cccc(C)c1S(=O)(=O)NC(=O)c1noc(C)n1` was 168 °C.
The value for `CC1CCCCC1N(Cc1ccc(C(=O)NC(C)(C)C(=O)O)cc1)S(=O)(=O)c1ccc(Cl)cc1` (centres undefined) was 121 to 122 °C; that for `CC(C)(C)Sc1ccc(Cn2c(CC(C)(C)C(=O)O)c(SC(C)(C)C)c3cc(OCc4ccc5ccccc5n4)ccc32)cc1` was 172 to 173 °C.
In turn, `COC(=O)c1coc2ccc(C)cc12` gave a melting point of 40 to 41 °C.
On to `CCSc1cc(=O)c2c(O)cc(OC)c(C3CCN(C)CC3O)c2o1` (centres undefined), for which the melting point came out at 60 °C.
